Experimental data published in patent US9993564B2, “Blood brain barrier shuttle” (Hoffmann-La Roche Inc., priority 2014, dated 2018).

Legend:
[1] = in vivo phage display selection (4 rounds) with CSF sampling, sequencing of CSF recovered phage clones; parameters: species or system rat; details: for Reads: CSF recovered phage clones after 4 rounds of in vivo selection in rats, 924 sequencing in total; for Frequency (%): frequency of each peptide related to the 924 total sequencing runs, CSF, after 4 rounds of in vivo selection in rats
[2] = system: brain blood vessels and capillaries; assay: immunohistochemistry of intravenously administered phage clones bound to brain vasculature; type: in vivo; details: FIG. 5, no staining with empty phage
From the text: Specific phage clones were intravenously administered to allow targeting in vivo. Subsequently, immunohistochemistry was used to detect the phages specifically bound to the brain blood vessels and capillaries. […] ID. NO. 1, SEQ. ID. NO. 6 and SEQ. ID. NO.
ID. NO. 8 is linked to SA through an N-terminal biotin. […] ID. NO.

Substance	Reads [1]	Frequency (%) [1] [%]	staining at brain capillaries in the cortex (immunohistochemistry) [2]
11 (RSTASTSYPFFF; Brain targeting peptide) [compound 11]	17	2.2	–
23 (STVVCFKGVPTG; Brain targeting peptide) [compound 23]	5	0.5	–
15 (YSMVFVGIKL; Brain targeting peptide) [compound 15]	10	1.2	–
12 (ISNRSHKGLMVG; Brain targeting peptide) [compound 12]	16	1.8	–
24 (TWLFSLG; Brain targeting peptide) [compound 24]	4	0.5	–
26 (GWIPYDGGNRAR; Brain targeting peptide) [compound 26]	4	0.4	–
20 (SGSGIGLDRWRV; Brain targeting peptide) [compound 20]	7	0.7	–
22 (NSHAMSC; Brain targeting peptide) [compound 22]	5	0.6	–
30 (ELVHA; Brain targeting peptide) [compound 30]	3	0.3	–
29 (LRPRGAFQRRDFKL; Brain targeting peptide) [compound 29]	3	0.3	–
31 (FLIQWGAVLSRG; Brain targeting peptide) [compound 31]	2	0.3	–
4 (KVAWRVFSLFWK; Brain targeting peptide) [compound 4]	57	6.1	–
19 (SRYSIGGNNGVT; Brain targeting peptide) [compound 19]	7	0.9	–
17 (RRPAPLIMFRMI; Brain targeting peptide) [compound 17]	9	1.0	–
1 (LYVLHSRGLWGFKL; Brain targeting peptide) [compound 1]	147	15.9	–
33 (TAVFSALSMLRG; Brain targeting peptide) [compound 33]	2	0.2	–
6 (GRPQKINGARVC; Brain targeting peptide) [compound 6]	29	4.3	–
10 (YNQSLLQGYRYW; Brain targeting peptide) [compound 10]	21	2.3	–
3 (GFVRFRLSNTR; Brain targeting peptide) [compound 3]	115	12.4	–

Substance	Reads [1]	Frequency (%) [1] [%]	staining at brain capillaries in the cortex (immunohistochemistry) [2]
28 (GCASPASTSFHS; Brain targeting peptide) [compound 28]	3	0.3	–
7 (MRWFFSHASQGR; Brain targeting peptide) [compound 7]	28	3.1	–
36 (LWVSVPRARIIQ; Brain targeting peptide) [compound 36]	2	0.2	–
13 (DAAESVLVGTVR; Brain targeting peptide) [compound 13]	15	1.7	–
34 (AVES; Brain targeting peptide) [compound 34]	2	0.2	–
GRPQKINGARVC [SEQ. ID. NO. 6]	–	–	strong and specific staining
35 (RPRAQGAL; Brain targeting peptide) [compound 35]	2	0.2	–
9 (IGTLTT; Brain targeting peptide) [compound 9]	22	2.8	–
16 (DVAKVS; Brain targeting peptide) [compound 16]	10	1.0	–
21 (WGCNGTEWRGLLGIKL; Brain targeting peptide) [compound 21]	6	0.7	–
8 (RLSSVDSDLSGC; Brain targeting peptide) [compound 8]	26	3.0	–
32 (VRDWAYVYSTVL; Brain targeting peptide) [compound 32]	2	0.2	–
5 (SVHGV; Brain targeting peptide) [compound 5]	40	6.1	–
27 (STMRYVGVTCL; Brain targeting peptide) [compound 27]	3	0.4	–
2 (LGSVS; Brain targeting peptide) [compound 2]	137	14.8	–
14 (YAWGGGWVLQWF; Brain targeting peptide) [compound 14]	12	1.6	–
18 (DPQILMGVLRSIRGFGVKL; Brain targeting peptide) [compound 18]	9	0.9	–
LYVLHSRGLWGFKL (displayed on T7 phage; Brain targeting peptide) [SEQ. ID. NO. 1]	–	–	strong and specific staining
25 (LPGGSPGHILVC; Brain targeting peptide) [compound 25]	4	0.4	–
